According to patent US6316414A, “Somatostatin analogs for the treatment of cancer” (Dabur Research Foundation, priority 2000, dated 2001):

Tested on: human colon adenocarcinoma (PTC) xenografts
Assay: In vivo antitumor activity on PTC xenografts in nude mice
Set-up: species or system Balb/c athymic mice
Conditions: for percentage inhibition of tumor growth as compared to controls: 8.5 μg/100 μl intravenously twice a day for 10 days
Experimental: The antitumor activity of SEQ ID NO:2 and SEQ ID NO:3 was studied in human colon adenocarcinoma (PTC) xenografts in nude mice. PTC tumor xenografts were grown in Balb/c athymic mice by subcutaneous inoculation of a single cell suspension of PTC cells (15×10^6 cells/100 μl). The tumor bearing animals were divided into 3 groups of three animals each including one group comprising untreated control animals. Treatment with novel somatostatin analogs was initiated when the average tumor volumes, as measured using a vernier caliper, were between 400-800 mm^3. Solutions of SEQ ID NO:2 and SEQ ID NO:3 were prepared at a concentration of 85 μg/ml and intravenously administered to the assigned group of tumor bearing animals at a dose of 8.5 μg/100 μl twice a day so that the total dose of […] was administered to each animal. The treatment was continued for a period of 10 days.
The antitumor activity of the compounds was monitored by measuring tumor volumes every fourth day using the formula W*W*L*[…] (W=smaller diameter, L=larger diameter). The percentage inhibition of tumor growth was calculated using the formula (1-tumor volume-treated/tumor volume control)* 100.

[1] = day 0, average of three animals
[2] = day 9, average of three animals
[3] = day 13, average of three animals
[4] = day 18, average of three animals
[5] = day 21, average of three animals

D-Phe-Cys-Tyr-D-Trp-Orn-Ac5c-Pen-Thr-NH2 [SEQ ID NO: 3]
tumor volume, individual animal (animal I, day 0): 0 mm^3 | tumor volume, individual animal (animal I, day 9): 560 mm^3 | tumor volume, individual animal (animal I, day 13): 1946 mm^3 | tumor volume, individual animal (animal I, day 18): 3177 mm^3 | tumor volume, individual animal (animal I, day 21): 0 mm^3 | tumor volume, individual animal (animal II, day 0): 0 mm^3 | tumor volume, individual animal (animal II, day 9): 774 mm^3 | tumor volume, individual animal (animal II, day 13): 1800 mm^3 | tumor volume, individual animal (animal II, day 18): 3610 mm^3 | tumor volume, individual animal (animal II, day 21): 4939 mm^3 | tumor volume, individual animal (animal III, day 0): 0 mm^3 | tumor volume, individual animal (animal III, day 9): 324 mm^3 | tumor volume, individual animal (animal III, day 13): 1530 mm^3 | tumor volume, individual animal (animal III, day 18): 4234 mm^3 | tumor volume, individual animal (animal III, day 21): 7301 mm^3 | tumor volume, Avg [1]: 0 mm^3 | tumor volume, Avg [2]: 552 mm^3 | tumor volume, Avg [3]: 1758 mm^3 | tumor volume, Avg [4]: 3674 mm^3 | tumor volume, Avg [5]: 4080 mm^3 | percentage inhibition of tumor growth as compared to controls (day 21): 54.7%

D-Phe-Cys-Tyr-D-Trp-Orn-Deg-Pen-Thr-NH2 [SEQ ID NO: 2]
tumor volume, individual animal (animal IV, day 0): 0 mm^3 | tumor volume, individual animal (animal IV, day 9): 480 mm^3 | tumor volume, individual animal (animal IV, day 13): 1254 mm^3 | tumor volume, individual animal (animal IV, day 18): 1965 mm^3 | tumor volume, individual animal (animal IV, day 21): 491 mm^3 | tumor volume, individual animal (animal V, day 0): 0 mm^3 | tumor volume, individual animal (animal V, day 9): 678 mm^3 | tumor volume, individual animal (animal V, day 13): 2196 mm^3 | tumor volume, individual animal (animal V, day 18): 5240 mm^3 | tumor volume, individual animal (animal V, day 21): 4839 mm^3 | tumor volume, individual animal (animal VI, day 0): 0 mm^3 | tumor volume, individual animal (animal VI, day 9): 806 mm^3 | tumor volume, individual animal (animal VI, day 13): 2333 mm^3 | tumor volume, individual animal (animal VI, day 18): 4453 mm^3 | tumor volume, individual animal (animal VI, day 21): 6250 mm^3 | tumor volume, Avg [1]: 0 mm^3 | tumor volume, Avg [2]: 654 mm^3 | tumor volume, Avg [3]: 1927 mm^3 | tumor volume, Avg [4]: 3886 mm^3 | tumor volume, Avg [5]: 3860 mm^3 | percentage inhibition of tumor growth as compared to controls (day 21): 57.1%
